For one assay, the system named is HDAC3. Kind of assay: HDAC3 enzyme activity in nuclear extracts of human tumor xenografts of treated mice. The settings on record: first value of the pair HDAC3 and HDAC4, SAHA 25 mg/kg.
In the next assay the test system is p53. Kind of assay: Western Blotting, increase of p53 level. The format is cell-based. The settings on record: liver cancer cells, Lewis lung cancer cells and other cancer cell lines and tumor tissue protein lysates, 48 h treatment, read-out: Effective concentration to increase p53 by 50%. An excerpt: (§1) Antibodies: primary antibodies of VEGFR, EGFR, c-Met, K-Ras, H-Ras, Akt, NF-κB, Cyclin D1, ER-alpha, Dvl-1, Dvl-2, Dvl-3, MMP-9, MMP2, β-catenin, Bcl-2, Bax, p53, p21, E-cadherin and Caspase3 protein, purchased from American Cell Signaling Technology Company and Santa Cruz Technology Company; and H3 acetylation, H4 acetylation and HDAC (HDAC3, HDAC4 and the like) Antibody Sample Kits, purchased from Cell Signaling Technology Company of the U.S.
(§2) (3) polyacrylamide gel electrophoresis (SDS-PAGE): an equal amount of protein lysate sample was used to separate protein, film transfer, and blocking, treated with appropriate primary antibodies and secondary antibodies in sequence, and the film was washed, then the color was developed with ECL kit, and a blot protein band was detected by exposure of an X-ray film; and a Gel-Pro Analyzer was used for quantitative analysis of gray degree, optical density value of the control group and the drug treatment group in various concentration were respectively compared with that of internal reference, the obtained ratios were respectively compared with the control group, and the protein expression level was semi-quantified.

Assay [1] concerns human cervical cancer cells Hela xenograft. Kind of assay: In-vivo growth of Hela xenografts in nude mice. The settings on record: Mus musculus, ip, vs DMSO solvent control, read-out: Curative effect (inhibition rate %) of tumor weight; for inhibition in vivo at 60 mg/kg: 60 mg/kg intraperitoneal once a day; for inhibition in vivo at 90 mg/kg: 90 mg/kg intraperitoneal once a day. On the set-up: species or system BALB/c nude mice. As to the method: (§3) RPMI1640 and DMEM culture solutions: Hyclone Company; inactivated fetal bovine serum: Hyclone Company, preserved at −20° C.; trypsin: Amersco Company; and 0.4% trypan blue: Sigma Company;
(§4) (3) Observation of growth of tumors in nude mice: the activities (including food intake, traits of urine and stool, mental state and the like) of the nude mice and the tumor growth time and growth situation of the transplanted tumors were observed every day, the body weight and the size of the tumors were measured once every 2-3 days. The long diameter a and the short diameter b (mm) of each tumor were measured by a vernier caliper to calculate the volume, wherein the volume V=π1/2·ab^2 (mm^3);
(§5) (4) sacrifice of animals: the mice were anesthetized and photoed after treatment experiments; the nude mice were sacrificed by breaking neck, the tumor tissues were stripped under sterile conditions and the weight of the tumors was weighed; and the effects of the drugs on pathology and toxicity of the various organs and tissues were detected.

The subject of another assay is Cyclin D1. Kind of assay: Western Blotting, Cyclin D1 level. Format: cell-based. The settings on record: human liver cancer cells, Lewis lung cancer cells and other cancer cell lines and tumor tissues, read-out: Effective concentration (IC50) for inhibition of Cyclin D1.
Source text: as §1, §2

In assay [2] the test system is human liver cancer cells HepG2. Kind of assay: MTT growth inhibition, HepG2 cells. The format is cell-based. The settings on record: 72 h after treatment, read-out: Drug concentration (IC50) at which 50% cancer cells survived.
The test system of the next assay is K-Ras. Kind of assay: Western Blotting, K-Ras level. The format is cell-based. The settings on record: human liver cancer cells, Lewis lung cancer cells and other cancer cell lines and tumor tissues, read-out: Effective concentration (IC50) for inhibition of K-Ras.
Source text: as §1, §2

For assay [3], the system named is human pancreatic cancer cells PANC-1 xenograft. Kind of assay: In-vivo growth of PANC-1 xenografts in nude mice. On the set-up: species or system BALB/c nude mice. The settings on record: Mus musculus, ip, vs DMSO solvent control, read-out: Curative effect (inhibition rate %) of tumor weight; for inhibition in vivo at 60 mg/kg: 60 mg/kg intraperitoneal once a day; for inhibition in vivo at 90 mg/kg: 90 mg/kg intraperitoneal once a day. As to the method:
as §3, §4, §5

In another assay the test system is EGFR. Kind of assay: Western Blotting, EGFR level. The settings on record: human liver cancer cells, Lewis lung cancer cells and other cancer cell lines and tumor tissues, read-out: Effective concentration (IC50) for inhibition of EGFR. The format is cell-based.
Source text: as §1, §2

A further assay concerns HDAC4. Kind of assay: HDAC4 enzyme activity in nuclear extracts of human tumor xenografts of treated mice. The settings on record: second value of the pair HDAC3 and HDAC4, SAHA 25 mg/kg.
Assay [4] has as its system human brain tumor cells Daoy. Kind of assay: MTT growth inhibition, Daoy cells. Format: cell-based. The settings on record: Homo sapiens, 72 h after treatment, read-out: Drug concentration (IC50) at which 50% cancer cells survived.

Marks after values point to notes of the source that are not given here.

Procedure for HDAC3: (§6) For the detection of the effect of the drugs on enzyme activity of EZH2 and HDAC of in-vivo tumors, the tumors were separately excised after 6 h of medication, total proteins and nucleoproteins were extracted separately to detect and analyze the activity of the enzyme.
(§7) (2) 50 μl of diluted sample solution was added into each reaction well, the plate was sealed with a plate-sealing film and reacted at room temperature for 30 min;
(§8) (3) the plate-sealing film was carefully peeled off, the liquid was removed, dried, 150 μl of washing liquid was added into each well, stood for 30 s, then the liquid was removed, repeated twice, and dried;
(§9) (4) 2 μl of HDAC enzyme or tumor tissue nuclear extracts was respectively uniformly mixed with 28 μl of diluted sample solution, added into the wells, the plate was sealed with the plate-sealing film and reacted at 37° C. for 60 min;
(§10) (5) the plate was washed for three times, wherein the operation was the same as that in (3); and a diluted antibody capture working solution was added into each reaction well according to 50 μl/well and reacted on a shaking bed at room temperature for 60 min;
(§11) (6) the plate was washed for four times, wherein the operation was the same as that in (3);
(§12) (7) a diluted antibody detection working solution was added into each reaction well according to 50 μl/well and reacted at room temperature for 30 min;
(§13) (8) the plate was washed for five times, wherein the operation was the same as that in (3);
(§14) a color developing agent was added according to 100 μl/well, and performed dark development for 2-10 min;
(§15) (9) 50 μl of stop solution was added into each well for stopping the reaction when the color in the well with a standard product turned blue with medium intensity, the color immediately turned yellow from blue after the addition;
(§16) (10) the light absorbance (OD value) of each well was measured in sequence at the wavelength of 450 nm; wherein the measurement should be performed within 15 min after addition of the stop solution; and
Procedure for HDAC4: as §6, §7, §8, §9, §10, §11, §12, §13, §14, §15, §16

For the compound `CCNC(=O)CCC(NC(=O)c1cc2cc([N+](=O)[O-])ccc2oc1=O)C(=O)OCC` (stereo in doubt) [Compound If, (R)-2-(6-nitro-2-oxo-2H-benzopyran-3-carboxamido)-5-ethylamino-5-oxo-pentanoic acid ethyl ester], the “decrease of HDAC3 enzyme activity/inhibition rate” value in the assay with HDAC3 (A549 tumor grown in vivo) was found to be 73%* and; in the assay on HDAC3 (MCF7 tumor grown in vivo), 67%* and; in the assay with HDAC3 (MDA-MB231 tumor grown in vivo), 65%* and; in the assay with HDAC3 (SMMC7721 tumor grown in vivo), 66%* and. In the assay with p53, the EC50 is < 65 µM. Also, the inhibition in vivo at 60 mg/kg in assay [1] was found to be 50.9%; in [3] it was 53.6%. In addition, the values for the inhibition in vivo at 90 mg/kg in assay [1] and in [3] were 66.8% and 67.3%, respectively. Moreover, the IC50 with Cyclin D1 was < 90 µM; in [2] it was 130 µM; in the assay with K-Ras it was < 55 µM; in the assay on EGFR it was < 100 µM; in [4], 129 µM. Moreover, the “decrease of HDAC4 enzyme activity/inhibition rate” value is given as 75%*(A549)- in the assay with HDAC4 (A549 tumor grown in vivo), 69%*(MCF7) in the assay with HDAC4 (MCF7 tumor grown in vivo), 67%*(MDA-MB231) with HDAC4 (MDA-MB231 tumor grown in vivo) and 68%*(SMMC7721); with HDAC4 (SMMC7721 tumor grown in vivo).
Take `CCNC(=O)CCC(NC(=O)c1cc2ccccc2oc1=O)C(=O)OC` (stereo not drawn) [Compound Ia, methyl 5-ethylamino-5-oxo-2-(2-oxo-2H-benzopyran-3-carboxamido)pentanoate]: the “decrease of HDAC3 enzyme activity/inhibition rate” value in the assay with HDAC3 (SMMC7721 tumor grown in vivo) was found to be 60%* and. The EC50 in the assay on p53 is < 125 µM. Also, the inhibition in vivo at 60 mg/kg turned out to be 54.7% in assay [1] and 55.8% in assay [3]. The inhibition in vivo at 90 mg/kg is 62.9% in assay [1] and 60.5% in [3]. Also, the IC50 in the assay on Cyclin D1 is < 125 µM; in assay [2] it was 250 µM; with K-Ras, < 85 µM; with EGFR it was < 125 µM; in assay [4], 250 µM. In the assay with HDAC4 (SMMC7721 tumor grown in vivo), the “decrease of HDAC4 enzyme activity/inhibition rate” value was 58%*(SMMC7721).
For the compound `CCNC(=O)CC[C@@H](NC(=O)c1cc2cc(Cl)ccc2oc1=O)C(=O)OCC` [Compound Ic, (R)-2-(6-CI-2-oxo-2H-benzopyran-3-carboxamido)-5-ethylamino-5-oxo-pentanoic acid ethyl ester], the “decrease of HDAC3 enzyme activity/inhibition rate” value turned out to be 71%* and with HDAC3 (A549 tumor grown in vivo), 60%* and with HDAC3 (MCF7 tumor grown in vivo), 63%* and in the assay on HDAC3 (MDA-MB231 tumor grown in vivo) and 65%* and in the assay with HDAC3 (SMMC7721 tumor grown in vivo). The EC50 with p53 was < 100 µM. In addition, the inhibition in vivo at 60 mg/kg in [1] was 53.7%; in [3], 56.5%. For the same compound, the inhibition in vivo at 90 mg/kg in assay [1] was found to be 65.8%; in assay [3] it was 66.7%. For the same compound, the IC50 is < 100 µM with Cyclin D1; 93 µM in assay [2]; < 65 µM in the assay on K-Ras; < 100 µM in the assay on EGFR; 86 µM in assay [4]. Besides, the “decrease of HDAC4 enzyme activity/inhibition rate” value in the assay with HDAC4 (A549 tumor grown in vivo) was 73%*(A549)-; in the assay with HDAC4 (MCF7 tumor grown in vivo) it was 63%*(MCF7); in the assay with HDAC4 (MDA-MB231 tumor grown in vivo) it was 65%*(MDA-MB231); with HDAC4 (SMMC7721 tumor grown in vivo) it was 67%*(SMMC-7721);.
As for `CCNC(=O)CC[C@@H](NC(=O)c1cc2cc(Br)ccc2oc1=O)C(=O)OCC` [Compound Id, (R)-2-(6-Br-2-oxo-2H-benzopyran-3-carboxamido)-5-ethylamino-5-oxo-pentanoic acid ethyl ester], the “decrease of HDAC3 enzyme activity/inhibition rate” value in the assay with HDAC3 (A549 tumor grown in vivo) is 71%* and; in the assay on HDAC3 (MCF7 tumor grown in vivo), 60%* and; with HDAC3 (MDA-MB231 tumor grown in vivo), 63%* and; in the assay with HDAC3 (SMMC7721 tumor grown in vivo) it was 65%* and. Moreover, the EC50 with p53 is < 100 µM. For the same compound, the inhibition in vivo at 60 mg/kg in assay [1] amounted to 57.9%; in assay [3], 54.2%. The inhibition in vivo at 90 mg/kg in assay [1] was 71.9%; in assay [3], 64.8%. Moreover, the IC50 is < 100 µM in the assay on Cyclin D1; 125 µM in assay [2]; < 60 µM with K-Ras; < 100 µM with EGFR; 128 µM in assay [4]. In addition, the “decrease of HDAC4 enzyme activity/inhibition rate” value is recorded as 73%*(A549)- with HDAC4 (A549 tumor grown in vivo), 63%*(MCF7) in the assay on HDAC4 (MCF7 tumor grown in vivo), 65%*(MDA-MB231) in the assay on HDAC4 (MDA-MB231 tumor grown in vivo) and 67%*(SMMC7721); in the assay with HDAC4 (SMMC7721 tumor grown in vivo).

Values taken from patent publication US9518038B2, “Condensation product of theanine derivative and carboxylic acid coumarin derivative, its intermediate, preparation method and use thereof” (SHANDONG YINGDONG YINGHAO BIOTECHNOLOGY, INC., priority 2012, dated 2016).
